Like-named read-outs stand apart in the source and are kept apart here. Where a SMILES comes first, the peptide text is derived from it. [ ]: non-standard residue; d: D form. Dmt = Cc1cc(O)cc(C)c1C[C@H](N)C(=O)O; Tic = O=C(O)[C@@H]1Cc2ccccc2CN1
Assays:
μ and κ receptor [1] = conditions: cited from earlier work
κ opioid receptor = κ opioid receptor (Cavia porcellus, UniProt P41144); conditions: read-out: Ki^κ; [3H]U69,593, guinea pig brain membranes; cited from earlier work
μ opioid receptors [2] = target: T1, μ opioid receptors (Rattus norvegicus, UniProt P33535); conditions: read-out: Ki^μ; [3H]DAMGO, rat brain membranes; cited from earlier work
δ receptor [3] = target: T2, δ receptor (Mus musculus, UniProt P32300); conditions: cited from earlier work
μ and κ receptor [4] = assay: guinea pig ileum
μ opioid receptors [5] = target: T1, μ opioid receptors; assay: μ opioid receptor binding, displacement of [3H]DAMGO from rat brain membranes; conditions: relative to 4a
δ receptor [6] = target: T2, δ receptor; assay: mouse vas deferens
[7] = cited from earlier work
[8] = given i.c.v.; cited from earlier work

T2 sequence (P32300 whole entry): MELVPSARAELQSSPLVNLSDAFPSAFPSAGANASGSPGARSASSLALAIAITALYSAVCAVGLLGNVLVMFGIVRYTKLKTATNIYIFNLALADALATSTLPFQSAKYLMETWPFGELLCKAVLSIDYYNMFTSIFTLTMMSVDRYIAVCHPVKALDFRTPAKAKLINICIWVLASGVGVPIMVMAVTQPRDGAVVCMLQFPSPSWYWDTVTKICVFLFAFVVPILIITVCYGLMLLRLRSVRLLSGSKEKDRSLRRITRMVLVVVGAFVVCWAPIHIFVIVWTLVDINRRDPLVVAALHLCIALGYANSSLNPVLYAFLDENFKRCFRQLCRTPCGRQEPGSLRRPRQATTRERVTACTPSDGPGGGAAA
T1 sequence (P33535 whole entry): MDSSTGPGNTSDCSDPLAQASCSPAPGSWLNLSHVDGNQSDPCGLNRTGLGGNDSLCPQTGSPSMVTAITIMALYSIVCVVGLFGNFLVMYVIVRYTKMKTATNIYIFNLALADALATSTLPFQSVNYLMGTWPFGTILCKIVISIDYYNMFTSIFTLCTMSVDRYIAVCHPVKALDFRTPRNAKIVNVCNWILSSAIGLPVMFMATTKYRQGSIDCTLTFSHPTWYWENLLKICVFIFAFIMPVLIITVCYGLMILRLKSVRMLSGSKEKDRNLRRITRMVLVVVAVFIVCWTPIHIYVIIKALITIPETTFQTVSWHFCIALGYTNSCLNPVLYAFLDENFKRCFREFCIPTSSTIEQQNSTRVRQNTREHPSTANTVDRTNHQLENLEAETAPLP
Sequence of κ opioid receptor (P41144 whole entry): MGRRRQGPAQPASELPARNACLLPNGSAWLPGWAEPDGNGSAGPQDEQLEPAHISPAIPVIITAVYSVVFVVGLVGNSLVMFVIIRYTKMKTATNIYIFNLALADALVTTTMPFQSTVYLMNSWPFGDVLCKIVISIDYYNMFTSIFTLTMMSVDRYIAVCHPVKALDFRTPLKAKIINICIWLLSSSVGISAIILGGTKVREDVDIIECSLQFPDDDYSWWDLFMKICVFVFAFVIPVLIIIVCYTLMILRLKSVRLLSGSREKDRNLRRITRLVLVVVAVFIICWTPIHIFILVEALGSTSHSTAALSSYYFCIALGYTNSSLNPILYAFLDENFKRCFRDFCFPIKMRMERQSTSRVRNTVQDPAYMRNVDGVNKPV

Row | Compound | GPI IC50 (agonist potency) (μ and κ receptor [1]) | type of activity in the MVD assay (δ receptor [3]) | MVD Ke (δ antagonist activity) (δ receptor [3]) [nM] | further results
1 | H-[Dmt]-[Tic]-OH [Compound 8a] | Inactive | – | – | Ki (κ opioid receptor): > 1000 nM; Ki (μ opioid receptors [2]): 1360 ± 160 nM
2 | H-Tyr-Ticψ[CH2NH]Phe-Phe-OH [Compound 3a] | inactive | potent δ antagonists | – | –
3 | Cc1cc(O)cc(C)c1C[C@H](N)C(=O)N1Cc2ccccc2C[C@H]1C(=O)N[C@@H](CCCCN)C(=O)N[C@@H](Cc1ccccc1)C(N)=O [Compound 6a, H-Dmt-Tic-Lys-Phe-NH2] (HELM PEPTIDE1{[Cc1cc(O)cc(C)c1C[C@H](N)C(=O)[*:2]].[Tic].K.F.[am]}$$$$V2.0) | – | – | – | type of activity in the GPI assay (μ and κ receptor [4]): μ agonist; fold lower μ receptor affinity than 4a (μ opioid receptors [5]): 16 fold; Kb (δ receptor [6]): 2.18 ± 0.3 nM; type of activity in the MVD assay (δ receptor [6]): δ antagonist
4 | H-Y[Tic]FF-OH [Compound 1a] | inactive | potent δ antagonists | – | –
5 | H-[Dmt][Tic]FF-OH [Compound 2a] | inactive | potent δ antagonists | 0.196 ± 0.008 | –
6 | H-Dmt-Ticψ[CH2NH]Phe-Phe-NH2 [Compound 5a] | – | – | 0.537 ± 0.026 | IC50 (μ and κ receptor [1]; read-out: GPI IC50 (agonist potency)): 7.71 ± 0.31 nM; physical dependence upon chronic administration [7]: no physical dependence; analgesic tolerance upon chronic administration ([7]; compared with morphine): less analgesic tolerance than morphine; analgesic effect in the rat tail flick test [8]: potent analgesic effect
7 | H-[Dmt][Tic]FF-NH2 [Compound 4a] | – | – | 0.209 ± 0.037 | –

Reference: article PMC3776131 (Bioorganic & medicinal chemistry letters, 2013)
